Source: the NIST ThermoML archive (doi:10.1016/j.jct.2007.11.011)
± gives the expanded uncertainty stated by the source.

Assay: xn = mol fraction of the nth substance listed
Conditions: Liquid

CCOS(=O)(=O)[O-].CCn1cc[n+](C)c1 [1-ethyl-3-methylimidazolium ethyl sulfate] + CO
mass density [kg/m3]
Conditions | 100 kPa | 2500 kPa | 5000 kPa | 10000 kPa | 15000 kPa | 20000 kPa | 25000 kPa | 30000 kPa | 35000 kPa
323.15 K, x1 = 0.04781 | – | – | – | 868.74 ± 0.83 | 872.87 ± 0.94 | 876.82 ± 1.1 | 880.61 ± 1.2 | 884.24 ± 1.3 | 887.77 ± 1.4
323.15 K, x1 = 0.1026 | – | – | – | 942.8 ± 0.59 | 946.41 ± 0.62 | 949.87 ± 0.64 | 953.21 ± 0.67 | 956.44 ± 0.69 | 959.59 ± 0.7
323.15 K, x1 = 0.1977 | – | – | 1024.01 ± 0.5 | 1027.14 ± 0.52 | 1030.2 ± 0.55 | 1033.16 ± 0.58 | 1036.04 ± 0.62 | 1038.84 ± 0.67 | 1041.58 ± 0.71
323.15 K, x1 = 0.2432 | – | – | 1052.99 ± 0.54 | 1055.97 ± 0.59 | 1058.89 ± 0.65 | 1061.72 ± 0.71 | 1064.46 ± 0.78 | 1067.16 ± 0.86 | 1069.79 ± 0.94
323.15 K, x1 = 0.3026 | – | – | 1084.11 ± 0.61 | 1086.92 ± 0.69 | 1089.69 ± 0.78 | 1092.38 ± 0.87 | 1094.99 ± 0.98 | 1097.52 ± 1.1 | 1100.04 ± 1.2
323.15 K, x1 = 0.3887 | – | – | 1118.22 ± 0.7 | 1120.88 ± 0.81 | 1123.48 ± 0.93 | 1126.02 ± 1.1 | 1128.5 ± 1.2 | 1130.9 ± 1.4 | 1133.28 ± 1.6
323.15 K, x1 = 0.485 | – | – | 1146.43 ± 0.77 | 1148.93 ± 0.91 | 1151.4 ± 1.1 | 1153.83 ± 1.3 | 1156.17 ± 1.5 | 1158.47 ± 1.7 | 1160.75 ± 1.9
323.15 K, x1 = 0.589 | – | – | 1169.35 ± 0.83 | 1171.75 ± 1 | 1174.11 ± 1.2 | 1176.44 ± 1.4 | 1178.7 ± 1.6 | 1180.91 ± 1.9 | 1183.11 ± 2.1
323.15 K, x1 = 0.7289 | – | – | 1192.7 ± 0.89 | 1194.99 ± 1.1 | 1197.27 ± 1.4 | 1199.49 ± 1.6 | 1201.68 ± 1.8 | 1203.82 ± 2.1 | 1205.91 ± 2.4
323.15 K, x1 = 0.8521 | – | – | 1207.44 ± 0.94 | 1209.67 ± 1.2 | 1211.88 ± 1.4 | 1214.04 ± 1.7 | 1216.15 ± 2 | 1218.23 ± 2.2 | 1220.28 ± 2.5
323.15 K, x1 = 0.9397 | – | – | 1217.06 ± 0.97 | 1219.28 ± 1.2 | 1221.46 ± 1.5 | 1223.61 ± 1.8 | 1225.7 ± 2 | 1227.76 ± 2.3 | 1229.79 ± 2.6
333.15 K, x1 = 0.04781 | 850.98 ± 0.64 | 853.34 ± 0.69 | 855.7 ± 0.75 | 860.18 ± 0.87 | 864.49 ± 0.98 | 868.61 ± 1.1 | 872.54 ± 1.2 | 876.32 ± 1.3 | 879.95 ± 1.4
333.15 K, x1 = 0.1026 | 926.85 ± 0.53 | 928.81 ± 0.55 | 930.83 ± 0.57 | 934.71 ± 0.61 | 938.46 ± 0.65 | 942.07 ± 0.68 | 945.55 ± 0.71 | 948.89 ± 0.74 | 952.14 ± 0.78
333.15 K, x1 = 0.1977 | 1012.95 ± 0.48 | 1014.54 ± 0.48 | 1016.23 ± 0.49 | 1019.48 ± 0.5 | 1022.66 ± 0.52 | 1025.73 ± 0.55 | 1028.71 ± 0.58 | 1031.6 ± 0.62 | 1034.42 ± 0.66
333.15 K, x1 = 0.2432 | 1042.28 ± 0.5 | 1043.81 ± 0.51 | 1045.4 ± 0.53 | 1048.48 ± 0.57 | 1051.51 ± 0.62 | 1054.43 ± 0.67 | 1057.29 ± 0.74 | 1060.06 ± 0.81 | 1062.76 ± 0.88
333.15 K, x1 = 0.3026 | 1073.72 ± 0.54 | 1075.11 ± 0.56 | 1076.58 ± 0.6 | 1079.47 ± 0.66 | 1082.32 ± 0.74 | 1085.07 ± 0.83 | 1087.76 ± 0.93 | 1090.37 ± 1 | 1092.96 ± 1.2
333.15 K, x1 = 0.3887 | 1108.15 ± 0.59 | 1109.48 ± 0.63 | 1110.88 ± 0.68 | 1113.59 ± 0.78 | 1116.27 ± 0.9 | 1118.87 ± 1 | 1121.41 ± 1.2 | 1123.9 ± 1.4 | 1126.35 ± 1.5
333.15 K, x1 = 0.485 | 1136.7 ± 0.63 | 1137.95 ± 0.69 | 1139.28 ± 0.75 | 1141.86 ± 0.89 | 1144.4 ± 1 | 1146.86 ± 1.2 | 1149.29 ± 1.4 | 1151.66 ± 1.6 | 1153.97 ± 1.8
333.15 K, x1 = 0.589 | 1159.94 ± 0.66 | 1161.11 ± 0.73 | 1162.35 ± 0.81 | 1164.82 ± 0.97 | 1167.24 ± 1.2 | 1169.62 ± 1.4 | 1171.94 ± 1.6 | 1174.22 ± 1.8 | 1176.46 ± 2
333.15 K, x1 = 0.7289 | 1183.49 ± 0.7 | 1184.59 ± 0.79 | 1185.79 ± 0.87 | 1188.13 ± 1.1 | 1190.47 ± 1.3 | 1192.77 ± 1.6 | 1194.98 ± 1.8 | 1197.18 ± 2 | 1199.35 ± 2.3
333.15 K, x1 = 0.8521 | 1198.51 ± 0.73 | 1199.19 ± 0.82 | 1200.35 ± 0.92 | 1202.62 ± 1.1 | 1204.87 ± 1.4 | 1207.1 ± 1.6 | 1209.26 ± 1.9 | 1211.4 ± 2.2 | 1213.49 ± 2.4
333.15 K, x1 = 0.9397 | 1207.93 ± 0.75 | 1209.04 ± 0.85 | 1210.2 ± 0.95 | 1212.45 ± 1.2 | 1214.69 ± 1.5 | 1216.87 ± 1.7 | 1219.03 ± 2 | 1221.13 ± 2.3 | 1223.21 ± 2.5
